In patent publication US8685976B2, “Cell adhesion promoting agent and method of promoting cell adhesion” (Kyoto University, priority 2008, dated 2014):
“Also recorded” adds a separate entry of the source. Where two headings read alike, the source gives them in different places.

Experiments:
Jurkat cells [1] = test: Cell adhesion assay by addition, Jurkat cells; type: cell-based, human; settings: Jurkat cells; for cell-adhesion promoting activity of adhesamine derivatives: FIG. 6
Experimental: 1 μL each of an aqueous solution of adhesamine (1), Type I collagen, poly-L-lysine hydrochloride, poly-L-ornithine hydrobromide, and fibronectin at a concentration of 50, 500, and 5000 μg/ml, was added to 96-well plate. 100 μL of HepG2 suspension (4×10^5 cells/mL) was added to each well. After 3-hour incubation at 37° C., non-adherent cells were removed by washing each well with PBS three times, and the attached cells were counted with a Neubauer counting chamber (Digital Bio). For Jurkat cells, 100 μL of cell suspension was added to each well at a density of 1×10^6 cells/ml. After 5-hour incubation at 37° C., non-adhered cells were removed by washing each well with PBS twice, and the attached cells were counted with a Neubauer counting chamber (Digital Bio). To calculate adhesion rates, firstly seeded cell numbers were assigned a value of 100%. As control tests, the same tests were conducted using wells supplied with only 1 μL of DMSO. Each assay was conducted in triplicate, and the means and standard derivations were calculated.
The comparison between adhesamine and its derivatives regarding cell adhesion promotion activity was conducted using Jurkat cells by way of reagent addition assay. 1 μL each of DMSO solutions of the compounds having concentrations of 60, 600, and 6000 μM were added to 96-well plates. The wells were supplied with 100 μL each of Jurkat cell suspensions (1×10^6 cells/mL). After 5-hour incubation at 37° C., non-adhered cells were removed by washing each well with PBS twice, and the attached cells were counted with a Neubauer counting chamber (Digital Bio). To calculate adhesion rates, firstly seeded cell numbers were assigned a value of 100%. As control tests, the same tests were conducted using well plates supplied with only 1 μL of DMSO. Each assay was conducted in triplicate, and the means and standard derivations were calculated.
However, since HepG2 cells have an intrinsic propensity to adhere to plastic tissue-culture plates, a test was conducted to determine whether the same effect was also obtained in the Jurkat cell line and human T-lymphocytes that are floating cells. Remarkably, 30% and 60% of the Jurkat cells attached to a culture plate in the presence of 6 and 60 μM of adhesamine, respectively (FIG. 1D). Removal of adhesamine by washing the plate twice with PBS detached the cells. 93% of Jurkat cells were released from the surface of a culture plate 24 hour after washing (FIG. 2). […] Simply adding adhesamine to the medium promoted adhesion of Jurkat cells onto culture plates, but not to each other.

HepG2 cells = test: Confocal imaging of fluorescent compounds; type: cell-based; settings: for localization of the fluorescent compound: HepG2, 6 μM, 3 hours
Experimental: HepG2 cells were incubated with Compound 4 (6 μM, A and C) or Compound 5 (6 μM, B and D) for 3 hours after seeding.
In (A) and (B), Jurkat cells (A) or HepG2 cells (B) were pretreated with 0.02 units/mL of heparinase, heparitinase I, and heparitinase II, or 0.1 units/mL of protease-free chondroitinase ABC in a serum-free culture medium for 1 hour at 37° C. before evaluating cell adhesion. The treated cells were seeded onto adhesamine-added or fibronectin-coated plastic wells. The attached cells were counted at 5 hours after seeding. The concentrations of adhesamine and fibronectin were 6 μM and 5 μg/mL, respectively. Each point represents the means±SD. (C) and (D) show localization of Compound 4 in HepG2 cells treated with heparinase/heparitinase I/heparitinase II (C) or chondroitinase ABC (D).
HepG2 cell suspension (100 μL) were seeded on a 96-well plate (Greiner bio-one) at a density of 2×10^5 cells/mL, and the cells were incubated with Compounds 4 and 5 for 3 hours at 37° C., at a concentration of 6 μM. After incubation, medium exchange was performed, and the cells were then subjected to fluorescent microscopic observation. Microscopic images of the cells were captured by a Yokogawa CSU22 confocal fluorescence microscope with 405 nm laser excitation.

Jurkat cells [2] = test: Cytoskeletal disruption, cell adhesion; type: cell-based, human; settings: for effect on adhesamine-mediated cell adhesion: adhesamine 6 μM, cytochalasin B 0-100 μM or nocodazole 0-0.5 μM; for effect on fibronectin-mediated cell adhesion: fibronectin-coated plate; for effect on cell attachment induced by poly-L-lysine: poly-L-lysine-coated plate
Experimental: Jurkat cells were adhered to plastic plates by adding adhesamine thereto in the presence of nocodazole (a tubulin inhibitor) or cytochalasin B (an actin inhibitor). Both nocodazole and cytochalasin inhibited adhesamine-induced cell adhesion, as observed in the cells adhered to a fibronectin-coated plate. […] The concentration of adhesamine was 6 μM. The fibronectin- or poly-L-lysine-coated plates were prepared by pretreating wells of 96-well plates with fibronectin or poly-L-lysine (1 ng/well).
Jurkat cells (5×10^4) were cultured in 100 μL of RPMI, and incubated with cytochalasin B (0-100 μM) or nocodazole (0-0.5 μM) at 37° C. The treated cells were then assayed for their responses to adhesamine (6 μM). Their responses to fibronectin- or poly-L-lysine-coated plates were also evaluated. The coated plates were prepared by pretreating wells of 96-well plates with fibronectin or poly-L-lysine (1 ng/well).

[3] = test system: adhesamine (6 μM)-induced cell attachment of Jurkat cells; test: Squelching assay; type: cell-based, human; settings: for IC50: adhesamine 6 μM, Jurkat cells
Experimental: Adhesamine (1: 0.6 nmol) and each glycosaminoglycan (GAG) (heparin, heparan sulfate, chondroitin sulfate, keratan sulfate, hyaluronic acid, and heparin oligosaccharides) ranging from 0.006 to 12 nmol were stirred in 10 μL of 50 mM phosphate buffer (pH 6.0) containing 100 mM NaCl and 1% DMSO with a vortex mixer at room temperature for 30 min. Thereafter, these mixtures were transferred to 96-well plates, and 90 μL of Jurkat cell suspension (1×10^5 cells/mL) was added to each well. After 5-hour incubation at 37° C., non-adherent cells were removed by washing each well with PBS twice, and the attached cells were counted with a Neubauer counting chamber (Digital Bio). To calculate the inhibition rates, the number of attached cells in the wells supplied only with 1% DMSO or GAG of each concentration was subtracted from the number of cells in which the cell adhesions were observed after addition of the samples. The inhibition rate is expressed as follows.
wherein AC+(−)GAGs, +(−)adhesamine expresses the number of adhered cells in the presence (absence) of GAGs and adhesamine.
IC50 values are defined as the concentrations of GAGs required for 50% inhibition of the adhesamine (6 μM)-induced cell attachment. The results of the squelching assays were plotted as percentage of inhibition vs. log (GAG), and IC50 values were determined from curve fits of multiple independent experiments.

[4] = test system: focal adhesion kinase (FAK); test: Western blotting, FAK activation; type: cell-based, human; settings: Jurkat, adhesamine 6 μM, excess heparin or RGD peptide (100 μg/mL)
Experimental: (§1) Jurkat cells were treated with adhesamine (6 μM) in a serum-poor culture medium (0.1% FBS) for the indicated periods of time. The treated cell lysates were Western blotted with antibodies against FAK phospho-tyrosine^397 (pFAK), FAK, ERK1/2 phospho-threonine^202/tyrosine^204 (pERK) or ERK. In (B), Jurkat cells were incubated for 5 hours with varied concentrations of adhesamine or poly-L-lysine. The cell lysates were Western blotted with antibodies against FAK phospho-tyrosine^397 or FAK. […] The concentration of adhesamine (1) was 6 μM.
(§2) Jurkat cells were maintained in an RPMI medium containing 10% FBS. 5-6 million Jurkat cells were dispensed to a well of a 6-well plate in a final volume of 2 mL, and then incubated at 37° C. for 0-5 hours in the presence of adhesamine or poly-L-lysine. Non-adherent cells were removed and pelleted, and the remaining adherent cells were lysed in a 125 mM Tris-HCl buffer (pH 6.8) containing 4% SDS, 10% glycerol, 0.006% bromophenol blue, and 1.8% β-mercaptoethanol. The adherent cell homogenate was combined with pelleted nonadherent cells from the same well, and the combined sample was boiled for 5 minutes. The samples were separated by SDS-PAGE and electroblotted onto a nitrocellulose membrane. The membranes were blocked in 1% BSA and incubated with primary antibody, and then with horseradish peroxidase-conjugated secondary antibody. The blots were developed using the enhanced chemiluminescence technique.

[5] = test system: extracellular signal-regulated kinase (ERK); test: Western blotting, ERK activation; type: cell-based, human; settings: Jurkat, excess amounts of heparin
Experimental: as §1
as §2, with “The blots were developed using the enhanced chemiluminescence technique.” left out

Jurkat cells [6] = test: Microinjection of Alexa Fluor 594; type: cell-based, human; settings: 5 μg/mL reagent
Experimental: The concentration of the reagents used was 5 μg/mL.
The solutions of adhesamine (1), Type I collagen, poly-L-lysine hydrochloride, and fibronectin were prepared by diluting with PBS containing 1% (v/v) DMSO. 10 μL of each solution (1 mg/mL) was added to glass bottom culture dishes (35 mm uncoated dish). 2 mL of cell suspension in a culture medium was added to each well at a density of 2×10^5 cells/mL. After 14-hour incubation at 37° C., Alexa Fluor 594 (Molecular Probes, USA) at a concentration of 5 mg/mL was injected into Jurkat cells by using a CI-2000 automated cell injection system (Fujitsu, Japan). Success rates of the microinjection were evaluated by direct observation of the fluorescent cells through a fluorescent-microscopic window of the injection system. The data shown are means±SD for a minimum of three experiments. 20 cells were injected in each experiment.

[7] = read-out: IC50 (GAGs, 50% inhibition of adhesamine-induced cell attachment)

Question: For `C1C[N+]2(CCN1)CC[N+]1(CCNCC1)CC2.[Br-].[Br-]` [Compound 2, 3,12-diaza-6,9-diazoniadispiro-(5,2,5,2)-hexadecane dibromide, reference compound], which “cell-adhesion promoting activity of adhesamine derivatives” value (“cell-adhesion promoting activity” for short) (Jurkat cells [1]) is on record?
Answer: completely eliminated the activity

Question: Which “cell-adhesion promoting activity” value (Jurkat cells [1]) does the source give for `CSc1nc(Cl)c(CO)c(N2CC[N+]3(CC2)CC[N+]2(CCN(c4nc(SC)nc(Cl)c4CO)CC2)CC3)n1` [Compound 3] here?
Answer: no impact on activity

Question: Which “localization of the fluorescent compound” value (HepG2 cells) does the source give for `CSc1nc(Cl)c(C=NNS(=O)(=O)c2cccc3c(N(C)C)cccc23)c(N2CC[N+]3(CC2)CC[N+]2(CCN(c4nc(SC)nc(Cl)c4C=NNS(=O)(=O)c4cccc5c(N(C)C)cccc45)CC2)CC3)n1` [Compound 4] here?
Answer: on the cell surface

Question: And the “localization of the fluorescent probe” value (HepG2 cells; HepG2 cells treated with chondroitinase)?
Answer: no impact on the cell-surface localization

Question: What about the “localization of the fluorescent probe” value (HepG2 cells; HepG2 cells treated with heparan sulfate-degrading enzymes) of the same molecule?
Answer: diffused from the cell surface

Question: What about the “cell-adhesion promoting activity” value (Jurkat cells [1]) of the same molecule?
Answer: maintained the cell-adhesion promoting activity

Question: Which “localization of the fluorescent compound” value (HepG2 cells) does the source give for `CN(C)c1cccc2c(S(=O)(=O)N3CC[N+]4(CC3)CC[N+]3(CCN(S(=O)(=O)c5cccc6c(N(C)C)cccc56)CC3)CC4)cccc12` [Compound 5] here?
Answer: no clear localization

Question: What about the “cell-adhesion promoting activity” value (Jurkat cells [1]) of the same molecule?
Answer: little effect on cell adhesion

Question: For `O=[N+]([O-])c1c(Cl)ncnc1N1CC[N+]2(CC1)CC[N+]1(CCN(c3ncnc(Cl)c3[N+](=O)[O-])CC1)CC2` [Compound 6], which “Jurkat cell adhesion rate (%) in 6 μM of Adhesamine” value (from here on “Jurkat cell adhesion rate (%)”) (Jurkat cells [1]) is on record?
Answer: 22 ± 3.2%

Question: For `O=[N+]([O-])c1c(N2CC[N+]3(CC2)CC[N+]2(CCNCC2)CC3)ncnc1N1CC[N+]2(CC1)CC[N+]1(CCNCC1)CC2.[Cl-].[Cl-].[Cl-].[Cl-]` [Compound 7], which “Jurkat cell adhesion rate (%)” value (Jurkat cells [1]) is on record?
Answer: 21 ± 1.3%

Question: For `CSc1nc(Cl)c(C=O)c(N2CC[N+]3(CC2)CC[N+]2(CCN(c4ncnc(N5CC[N+]6(CC5)CC[N+]5(CCN(c7nc(SC)nc(Cl)c7C=O)CC5)CC6)c4[N+](=O)[O-])CC2)CC3)n1.[Cl-].[Cl-].[Cl-].[Cl-]` [Compound 8], which “Jurkat cell adhesion rate (%)” value (Jurkat cells [1]) is on record?
Answer: 28 ± 4.1%

Question: For `Clc1nc(Cl)nc(N2CC[N+]3(CC2)CC[N+]2(CCN(c4nc(Cl)nc(Cl)n4)CC2)CC3)n1` [Compound 9], which “Jurkat cell adhesion rate (%)” value (Jurkat cells [1]) is on record?
Answer: 35 ± 5.2%

Question: How did the “effect on adhesamine-mediated cell adhesion” value (Jurkat cells [2]) turn out when `C=C1[C@@H](C)[C@H]2[C@H](Cc3ccccc3)NC(=O)[C@]23OC(=O)/C=C/[C@H](O)CCC[C@@H](C)C/C=C/[C@H]3[C@@H]1O` [cytochalasin B] was run?
Answer: inhibited

Question: What about the “effect on fibronectin-mediated cell adhesion” value (Jurkat cells [2]) of the same molecule?
Answer: impaired

Question: What about the “effect on cell attachment induced by poly-L-lysine” value (Jurkat cells [2]) of the same molecule?
Answer: no detectable effects; also recorded: hardly inhibited

Question: Which “effect on adhesamine-mediated cell adhesion” value (Jurkat cells [2]) does the source give for `COC(=O)Nc1nc2ccc(C(=O)c3cccs3)cc2[nH]1` [nocodazole] here?
Answer: inhibited

Question: What about the “effect on fibronectin-mediated cell adhesion” value (Jurkat cells [2]) of the same molecule?
Answer: impaired

Question: What about the “effect on cell attachment induced by poly-L-lysine” value (Jurkat cells [2]) of the same molecule?
Answer: no detectable effects; also recorded: hardly inhibited

Question: How did the IC50 [3, 7] turn out when Heparan sulfate was run?
Answer: 790 nM

Question: With Heparin [reference compound] as the molecule, how does the “effect on adhesamine-induced phosphorylation of FAK” value [4] read?
Answer: reduced

Question: And the IC50 [3, 7]?
Answer: 270 nM

Question: What about the IC50 ([3]; read-out: IC50 (heparin oligosaccharides, 50% inhibition of adhesamine-induced cell attachment)) of the same molecule?
Answer: 270 ± 50 nM

Question: What about the “effect on adhesamine-induced ERK activation” value [5] of the same molecule?
Answer: blocked

Question: For Hyaluronic acid, which “ability to squelch the activity of adhesamine” value ([3]; GAG added to the medium together with adhesamine) is on record?
Answer: no detectable effect

Question: What about the IC50 [3, 7] of the same molecule?
Answer: > 120000 nM

Question: With Keratan sulfate as the molecule, how does the IC50 [3, 7] read?
Answer: 1030 nM

Question: For “fibronectin: fibronectin from bovine plasma, plate-coating reagent”, which microinjection success rates (Jurkat cells [6]) is on record?
Answer: up to 30%
